Among the data in BindingDB's records for doi:10.1016/s0167-0115(98)00050-0 (Uppsala University, 1998) are Ki values, retold here.

The target of test [1] is Pancreatic polypeptide receptor 1 (Sus scrofa, UniProt O97505).
Test [2] concerns the target Neuropeptide Y receptor type 4 (Homo sapiens, UniProt P50391).
Test [3] deals with Neuropeptide Y receptor type 4 (Rattus norvegicus, UniProt Q63447).
Chain of Neuropeptide Y receptor type 4 (Rattus norvegicus, UniProt Q63447) (Q63447 whole entry): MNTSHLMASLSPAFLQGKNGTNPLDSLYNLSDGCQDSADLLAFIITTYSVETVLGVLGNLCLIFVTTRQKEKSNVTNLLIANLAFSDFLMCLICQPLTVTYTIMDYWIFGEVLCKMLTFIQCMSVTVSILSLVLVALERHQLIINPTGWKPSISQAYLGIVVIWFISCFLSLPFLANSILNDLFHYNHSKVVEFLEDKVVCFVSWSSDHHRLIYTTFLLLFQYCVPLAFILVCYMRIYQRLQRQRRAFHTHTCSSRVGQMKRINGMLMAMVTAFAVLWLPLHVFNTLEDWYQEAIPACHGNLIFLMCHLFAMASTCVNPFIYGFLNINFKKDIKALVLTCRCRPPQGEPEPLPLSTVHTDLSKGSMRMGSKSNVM

Chain of Pancreatic polypeptide receptor 1 (O97505 whole entry): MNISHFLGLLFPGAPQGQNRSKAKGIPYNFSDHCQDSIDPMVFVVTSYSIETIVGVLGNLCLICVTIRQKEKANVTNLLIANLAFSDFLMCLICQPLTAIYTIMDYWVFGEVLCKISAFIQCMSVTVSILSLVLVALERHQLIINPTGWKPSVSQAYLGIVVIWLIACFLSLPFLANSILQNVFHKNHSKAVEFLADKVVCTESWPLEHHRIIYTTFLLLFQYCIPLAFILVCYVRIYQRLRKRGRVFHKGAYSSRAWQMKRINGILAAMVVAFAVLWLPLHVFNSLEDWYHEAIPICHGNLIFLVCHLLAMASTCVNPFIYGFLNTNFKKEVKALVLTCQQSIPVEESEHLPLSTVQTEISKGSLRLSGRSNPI
Chain of Neuropeptide Y receptor type 4 (Homo sapiens, UniProt P50391) (P50391 whole entry C240R): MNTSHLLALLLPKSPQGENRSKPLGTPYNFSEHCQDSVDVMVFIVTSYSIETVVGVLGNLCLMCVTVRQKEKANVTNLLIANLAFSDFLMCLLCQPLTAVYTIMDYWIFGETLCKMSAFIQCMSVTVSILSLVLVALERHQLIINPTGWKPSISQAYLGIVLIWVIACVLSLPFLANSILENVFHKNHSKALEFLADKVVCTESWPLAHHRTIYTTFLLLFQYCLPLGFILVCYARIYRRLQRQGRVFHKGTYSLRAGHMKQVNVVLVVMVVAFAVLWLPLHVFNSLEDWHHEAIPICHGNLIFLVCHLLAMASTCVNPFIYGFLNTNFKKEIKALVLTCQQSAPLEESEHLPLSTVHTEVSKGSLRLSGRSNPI

The term Ki denotes the dissociation constant of the complex between target and ligand, obtained from inhibition or displacement. `CC[C@H](C)[C@H](NC(=O)[C@H](Cc1ccc(O)cc1)NC(=O)[C@H](CCCNC(=N)N)NC(=O)[C@H](CCCNC(=N)N)NC(=O)[C@H](CC(C)C)NC(=O)[C@H](CCC(N)=O)NC(=O)[C@@H](NC(=O)[C@H](CCC(=O)O)NC(=O)[C@H](Cc1ccc(O)cc1)NC(=O)[C@H](CCC(N)=O)NC(=O)[C@H](C)NC(=O)[C@H](CCCNC(=N)N)NC(=O)[C@H](CCC(N)=O)NC(=O)[C@H](CCC(=O)O)NC(=O)[C@H](Cc1c[nH]cn1)NC(=O)[C@@H](NC(=O)[C@H](C)NC(=O)[C@H](Cc1ccc(O)cc1)NC(=O)[C@H](CC(=O)O)NC(=O)CNC(=O)[C@@H]1CCCN1C(=O)[C@H](Cc1ccc(O)cc1)NC(=O)[C@H](CCSC)NC(=O)[C@@H]1CCCN1C(=O)[C@H](CCC(=O)O)NC(=O)[C@H](CC(C)C)NC(=O)[C@@H]1CCCN1C(=O)[C@H](C)N)[C@@H](C)O)[C@@H](C)O)C(=O)N[C@@H](CC(N)=O)C(=O)N[C@H](C(=O)N[C@@H](CC(C)C)C(=O)N[C@H](C(=O)N[C@@H](CCCNC(=N)N)C(=O)N1CCC[C@H]1C(=O)N[C@@H](CCCNC(=N)N)C(=O)N[C@@H](Cc1ccc(O)cc1)C(N)=O)[C@@H](C)O)[C@@H](C)O` [NSC_41735]: the inhibition constant (Ki) in test [1] amounted to 0.044 nM; in test [2] it was 0.071 nM; in test [3] it was 0.0027 nM.

Regarding “H-APLEPEYPGDNATPEQMAQYAAELRRYINMLTRPRY-NH2 [CAS_59763-91-6]”, the values for the Ki in test [1], in test [2] and in test [3] were 0.013 nM, 0.031 nM and 0.006 nM, respectively.

In turn, `CC[C@H](C)[C@H](NC(=O)[C@H](Cc1ccc(O)cc1)NC(=O)[C@H](CCCNC(=N)N)NC(=O)[C@H](CCCNC(=N)N)NC(=O)[C@H](CC(C)C)NC(=O)[C@H](CC(=O)O)NC(=O)[C@H](C)NC(=O)[C@H](C)NC(=O)[C@H](Cc1ccc(O)cc1)NC(=O)[C@H](CCC(N)=O)NC(=O)[C@H](C)NC(=O)[C@H](CCSC)NC(=O)[C@H](CCC(N)=O)NC(=O)[C@H](CCC(=O)O)NC(=O)[C@@H]1CCCN1C(=O)[C@@H](NC(=O)[C@H](C)NC(=O)[C@H](CC(N)=O)NC(=O)[C@H](CC(=O)O)NC(=O)CNC(=O)[C@@H]1CCCN1C(=O)[C@H](Cc1ccc(O)cc1)NC(=O)[C@@H](NC(=O)[C@@H]1CCCN1C(=O)[C@H](CCC(=O)O)NC(=O)[C@H](CC(C)C)NC(=O)[C@@H]1CCCN1C(=O)[C@H](C)N)C(C)C)[C@@H](C)O)C(=O)N[C@@H](CC(N)=O)C(=O)N[C@@H](CCSC)C(=O)N[C@@H](CC(C)C)C(=O)N[C@H](C(=O)N[C@@H](CCCNC(=N)N)C(=O)N1CCC[C@H]1C(=O)N[C@@H](CCCNC(=N)N)C(=O)N[C@@H](Cc1ccc(O)cc1)C(N)=O)[C@@H](C)O` [CAS_59763-91-6] displayed an inhibition constant Ki in test [1] of 0.031 nM.
